Experimental data from patent publication US11753407B2, “Compounds for treating spinal muscular atrophy” (PTC Therapeutics, Inc., priority 2012, dated 2023).

Legend:
[1] = tested on: SMN2 minigene mRNA (SMN2-A minigene) in HEK293H cells; assay: SMN2 minigene mRNA splicing RT-qPCR assay in cultured cells; type: cell-based, human; conditions: Homo sapiens, HEK293-H; concentration increasing full length SMN2 mRNA 1.5-fold relative to vehicle-treated cells; HEK293H cells with SMN2-A minigene, 24 hours, 7-point concentration data; read-out: EC1.5x for production of full length SMN2 mRNA
Summary of the method: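 Cells are seeded, left to attach 4-6 h, then dosed with test compound across seven concentrations and incubated 24 h. Lysates undergo RT-qPCR with primers/probe specific to the exon 7-containing minigene transcript, co-amplified with GAPDH. Fold change over vehicle is calculated, and EC1.5× marks the 1.5-fold point.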

[2] = tested on: Smn protein in SMA patient fibroblast cells (GM03813); assay: Smn protein assay in cultured cells (SMN HTRF); type: cell-based, human; conditions: SMA patient fibroblast cells, 48 hours; for EC1.5x for Smn protein expression: 7-point concentration curve, SMN HTRF, concentration producing 1.5 times Smn protein vs DMSO vehicle control; for maximum fold (Fold) increase of Smn protein: 7-point concentration data, fold relative to vehicle control
Summary of the method: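 Patient-derived SMA fibroblasts are plated, given compound for 48 h, then lysed in RIPA buffer with protease inhibitors. Lysate Smn is detected by an anti-SMN d2/kryptate HTRF pair incubated overnight. The normalized ΔF is divided by the vehicle ΔF to give fold change, from which EC1.5× and maximum fold are taken.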

| melting point | Compound | EC (1.5-fold increase) [1] | EC1.5x for Smn protein expression [2] | maximum fold (Fold) increase of Smn protein [2] |
| --- | --- | --- | --- | --- |
| 189 to 191 °C | Cc1cn2nc(-c3cc(=O)n4cc(C5CCN(C6CCC6)CC5)ccc4n3)cc2c(C)n1 [Compound 642, 7-(1-cyclobutylpiperidin-4-yl)-2-(4,6-dimethylpyrazolo[1,5-a]pyrazin-2-yl)-4H-pyrido[1,2-a]pyrimidin-4-one] | < 0.1 µM | **** (an EC1.5x≤0.3 μM is indicated by four stars (****)) | ***** (a fold increase >1.65 is indicated by five stars (*****)) |
| 244 to 247 °C | CCc1nc(C)cn2nc(-c3cc(=O)n4cc(N5CCN(C6CC6)[C@H](C)C5)ccc4n3)cc12 [Compound 644, 7-[(3R)-4-cyclopropyl-3-methylpiperazin-1-yl]-2-(4-ethyl-6-methylpyrazolo[1,5-a]pyrazin-2-yl)-4H-pyrido[1,2-a]pyrimidin-4-one] | 0.1 to 0.3 µM | *** (an EC1.5× between >0.3 μM and ≤1 μM is indicated by three stars (***)) | ***** (a fold increase >1.65 is indicated by five stars (*****)) |
| 261 to 264 °C | CCc1nc(C)cn2nc(-c3cc(=O)n4cc(N5CCN(C6CCC6)[C@H](C)C5)ccc4n3)cc12 [Compound 645, 7-[(3R)-4-cyclobutyl-3-methylpiperazin-1-yl]-2-(4-ethyl-6-methylpyrazolo[1,5-a]pyrazin-2-yl)-4H-pyrido[1,2-a]pyrimidin-4-one] | < 0.1 µM | **** (an EC1.5x≤0.3 μM is indicated by four stars (****)) | ***** (a fold increase >1.65 is indicated by five stars (*****)) |
| 216 to 219 °C | CCc1nc(C)cn2nc(-c3cc(=O)n4cc(N5CCN(C6COC6)[C@H](C)C5)ccc4n3)cc12 [Compound 646, 2-(4-ethyl-6-methylpyrazolo[1,5-a]pyrazin-2-yl)-7-[(3R)-3-methyl-4-(oxetan-3-yl)piperazin-1-yl]-4H-pyrido[1,2-a]pyrimidin-4-one] | 0.3 to 1 µM | ** (an EC1.5× between >1 μM and ≤3 μM is indicated by two stars (**)) | ***** (a fold increase >1.65 is indicated by five stars (*****)) |
| 261 to 263 °C | CCc1nc(C)cn2nc(-c3cc(=O)n4cc(C5CCN(C)CC5)ncc4n3)cc12 [Compound 654, 2-(4-ethyl-6-methylpyrazolo[1,5-a]pyrazin-2-yl)-7-(1-methylpiperidin-4-yl)-4H-pyrazino[1,2-a]pyrimidin-4-one] | < 0.1 µM | **** (an EC1.5x≤0.3 μM is indicated by four stars (****)) | ***** (a fold increase >1.65 is indicated by five stars (*****)) |
| 236 to 238 °C | CCc1nc(C)cn2nc(-c3cc(=O)n4cc(C5CCNCC5)ccc4n3)cc12 [Compound 656, 2-(4-ethyl-6-methylpyrazolo[1,5-a]pyrazin-2-yl)-7-(piperidin-4-yl)-4H-pyrido[1,2-a]pyrimidin-4-one] | < 0.1 µM | **** (an EC1.5x≤0.3 μM is indicated by four stars (****)) | **** (a fold increase between >1.5 and ≤1.65 is indicated by four stars (****)) |
| 190 to 192 °C | CCc1nc(C)cn2nc(-c3cc(=O)n4cc(C5CCN(C)CC5)ccc4n3)cc12 [Compound 657, 2-(4-ethyl-6-methylpyrazolo[1,5-a]pyrazin-2-yl)-7-(1-methylpiperidin-4-yl)-4H-pyrido[1,2-a]pyrimidin-4-one] | < 0.1 µM | **** (an EC1.5x≤0.3 μM is indicated by four stars (****)) | ***** (a fold increase >1.65 is indicated by five stars (*****)) |
| 194 to 196 °C | CCc1nc(C)cn2nc(-c3cc(=O)n4cc(C5CCN(CC)CC5)ccc4n3)cc12 [Compound 658, 2-(4-ethyl-6-methylpyrazolo[1,5-a]pyrazin-2-yl)-7-(1-ethylpiperidin-4-yl)-4H-pyrido[1,2-a]pyrimidin-4-one] | < 0.1 µM | **** (an EC1.5x≤0.3 μM is indicated by four stars (****)) | ***** (a fold increase >1.65 is indicated by five stars (*****)) |
| 207 to 209 °C | CCc1nc(C)cn2nc(-c3cc(=O)n4cc(C5CCN(CCO)CC5)ccc4n3)cc12 [Compound 659, 2-(4-ethyl-6-methylpyrazolo[1,5-a]pyrazin-2-yl)-7-[1-(2-hydroxyethyl)piperidin-4-yl]-4H-pyrido[1,2-a]pyrimidin-4-one] | < 0.1 µM | **** (an EC1.5x≤0.3 μM is indicated by four stars (****)) | ***** (a fold increase >1.65 is indicated by five stars (*****)) |
| 203 to 204 °C | CCCN1CCC(c2ccc3nc(-c4cc5c(CC)nc(C)cn5n4)cc(=O)n3c2)CC1 [Compound 660, 2-(4-ethyl-6-methylpyrazolo[1,5-a]pyrazin-2-yl)-7-(1-propylpiperidin-4-yl)-4H-pyrido[1,2-a]pyrimidin-4-one] | < 0.1 µM | **** (an EC1.5x≤0.3 μM is indicated by four stars (****)) | **** (a fold increase between >1.5 and ≤1.65 is indicated by four stars (****)) |

More lines, now with the values behind:

| Compound | melting point | EC (1.5-fold increase) [1] | EC1.5x for Smn protein expression [2] | maximum fold (Fold) increase of Smn protein [2] |
| --- | --- | --- | --- | --- |
| CCc1nc(C)cn2nc(-c3cc(=O)n4cc(N5CCN(C(C)C)[C@H](C)C5)ccc4n3)cc12 [Compound 643, 2-(4-ethyl-6-methylpyrazolo[1,5-a]pyrazin-2-yl)-7-[(3R)-3-methyl-4-(propan-2-yl)piperazin-1-yl]-4H-pyrido[1,2-a]pyrimidin-4-one] | 242 to 244 °C | 0.1 to 0.3 µM | *** (an EC1.5× between >0.3 μM and ≤1 μM is indicated by three stars (***)) | ***** (a fold increase >1.65 is indicated by five stars (*****)) |
| CCc1cc(-c2cc(=O)n3cc(N4CCN(CCO)CC4)ccc3n2)cn2cc(C)nc12 [Compound 647, 2-(8-ethyl-2-methylimidazo[1,2-a]pyridin-6-yl)-7-[4-(2-hydroxyethyl)piperazin-1-yl]-4H-pyrido[1,2-a]pyrimidin-4-one] | 248 to 253 °C | < 0.1 µM | **** (an EC1.5x≤0.3 μM is indicated by four stars (****)) | ***** (a fold increase >1.65 is indicated by five stars (*****)) |
| CCc1cc(-c2cc(=O)n3cc(N4CCN(C5CCC5)CC4)ccc3n2)cn2cc(C)nc12 [Compound 648, 7-(4-cyclobutylpiperazin-1-yl)-2-(8-ethyl-2-methylimidazo[1,2-a]pyridin-6-yl)-4H-pyrido[1,2-a]pyrimidin-4-one] | 274 to 279 °C | < 0.1 µM | **** (an EC1.5x≤0.3 μM is indicated by four stars (****)) | ***** (a fold increase >1.65 is indicated by five stars (*****)) |
| CCc1cc(-c2cc(=O)n3cc(N4CCN(CCO)[C@H](C)C4)ccc3n2)cn2cc(C)nc12 [Compound 649, 2-(8-ethyl-2-methylimidazo[1,2-a]pyridin-6-yl)-7-[(3R)-4-(2-hydroxyethyl)-3-methylpiperazin-1-yl]-4H-pyrido[1,2-a]pyrimidin-4-one] | 217 to 220 °C | < 0.1 µM | **** (an EC1.5x≤0.3 μM is indicated by four stars (****)) | ***** (a fold increase >1.65 is indicated by five stars (*****)) |
| CCc1cc(-c2cc(=O)n3cc(N4CCN(C5CCC5)[C@H](C)C4)ccc3n2)cn2cc(C)nc12 [Compound 650, 7-[(3R)-4-cyclobutyl-3-methylpiperazin-1-yl]-2-(8-ethyl-2-methylimidazo[1,2-a]pyridin-6-yl)-4H-pyrido[1,2-a]pyrimidin-4-one] | 209 to 212 °C | < 0.1 µM | **** (an EC1.5x≤0.3 μM is indicated by four stars (****)) | ***** (a fold increase >1.65 is indicated by five stars (*****)) |
| CCc1cc(-c2cc(=O)n3cc(N4CCN(CCO)[C@@H](C)C4)ccc3n2)cn2cc(C)nc12 [Compound 651, 2-(8-ethyl-2-methylimidazo[1,2-a]pyridin-6-yl)-7-[(3S)-4-(2-hydroxyethyl)-3-methylpiperazin-1-yl]-4H-pyrido[1,2-a]pyrimidin-4-one] | 220 to 223 °C | < 0.1 µM | **** (an EC1.5x≤0.3 μM is indicated by four stars (****)) | ***** (a fold increase >1.65 is indicated by five stars (*****)) |
| CCc1nc(C)cn2nc(-c3cc(=O)n4cc(C5CCN(CC)CC5)ncc4n3)cc12 [Compound 655, 2-(4-ethyl-6-methylpyrazolo[1,5-a]pyrazin-2-yl)-7-(1-ethylpiperidin-4-yl)-4H-pyrazino[1,2-a]pyrimidin-4-one] | 273 to 275 °C | < 0.1 µM | **** (an EC1.5x≤0.3 μM is indicated by four stars (****)) | **** (a fold increase between >1.5 and ≤1.65 is indicated by four stars (****)) |
